Molecules are shown by their SMILES.

The first experiment addresses T1, 3-hydroxy-3-methyl-glutaryl CoA reductase (Rattus norvegicus, UniProt P51639).
T1 construct: from tissue; host or cells: enzyme system separated from an experimental animal
T1 sequence (P51639 1-887): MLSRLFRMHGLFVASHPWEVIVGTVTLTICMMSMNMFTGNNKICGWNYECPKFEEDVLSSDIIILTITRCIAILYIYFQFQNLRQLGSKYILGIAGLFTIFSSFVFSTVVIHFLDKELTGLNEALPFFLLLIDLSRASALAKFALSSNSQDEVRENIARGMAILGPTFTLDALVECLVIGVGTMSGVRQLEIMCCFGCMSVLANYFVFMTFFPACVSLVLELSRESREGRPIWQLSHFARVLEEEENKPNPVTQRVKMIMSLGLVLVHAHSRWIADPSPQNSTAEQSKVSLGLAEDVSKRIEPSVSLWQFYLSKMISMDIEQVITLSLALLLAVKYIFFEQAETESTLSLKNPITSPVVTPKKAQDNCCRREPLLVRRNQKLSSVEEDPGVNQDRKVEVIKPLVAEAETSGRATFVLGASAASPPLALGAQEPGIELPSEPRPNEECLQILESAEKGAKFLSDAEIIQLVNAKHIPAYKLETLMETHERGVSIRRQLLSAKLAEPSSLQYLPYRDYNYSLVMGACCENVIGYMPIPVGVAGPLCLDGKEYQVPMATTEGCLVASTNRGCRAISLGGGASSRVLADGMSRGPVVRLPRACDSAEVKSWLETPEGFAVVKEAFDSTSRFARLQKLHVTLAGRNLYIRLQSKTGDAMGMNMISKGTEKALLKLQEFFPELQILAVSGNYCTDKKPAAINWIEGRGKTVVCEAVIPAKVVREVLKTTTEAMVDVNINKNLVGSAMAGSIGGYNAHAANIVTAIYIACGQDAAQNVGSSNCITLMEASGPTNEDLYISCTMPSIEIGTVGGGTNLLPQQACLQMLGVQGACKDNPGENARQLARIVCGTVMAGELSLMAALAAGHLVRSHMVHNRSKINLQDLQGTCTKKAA
Put plainly: inhibition of 3-hydroxy-3-methyl-glutaryl CoA reductase (method of Kuroda et al.). Format: biochemical. The settings on record: read-out: IC50 (concentration to achieve 50% inhibition of 3-hydroxy-3-methyl-glutaryl CoA reductase). An excerpt: The compounds of the present invention have a marked ability to reduce the levels of serum cholesterol. Specifically, the biosynthesis of chlolesterol in an enzyme system or a culture cell system separated from an experimental animal is inhibited through competition with the rate limiting enzyme of 3-hydroxy-3-methylglutaryl-CoA reductase. […] The determination of the inhibitory activity of the compounds was made using the method of Kuroda et al ["Biochimica et Biophysica Acta" Vol. 486, pp. 70-81(1977)] which is a modification of the known method of D. J. Shapiro et al ["Analytical Biochemistry" Vol. 31, pp. 383-390(1969)] with some improvements.
The results are shown in Table 2, in which IC50 is the concentration to achieve 50% inhibition of 3-hydroxy-3-methyl-glutaryl CoA reductase (nM).
For the compound `CCC(C)C(=O)OC1CCC(=NO)C2=CC(=O)C(C)C(CCC(O)CC(O)CC(=O)O)C21` (stereo not shown) [Compound A, Sodium 1-(2-methylbutyryl)-3,4-dihydro-6-oxo-4-hydroxyiminoiso-ML-236A carboxylate, reference compound], the IC50 turned out to be 0.0357 µM.
With `CCC(C)C(=O)OC1CCC(=NOC)C2=CC(=O)C(C)C(CCC(O)CC(O)CC(=O)O)C21` (stereo not shown) [Compound B, Sodium 1-(2-methylbutyryl)-3,4-dihydro-6-oxo-4-methoxyiminoiso-ML-236A carboxylate, reference compound], the IC50 came to 0.0395 µM.
The same measure, in the same setting: then `CCC(C)C(=O)OC1CCC(=NOCc2ccccc2)C2=CC(=O)C(C)C(CCC(O)CC(O)CC(=O)OCc3ccccc3)C21` (stereo not shown) [Example 1(c), Benzyl-(2-methylbutyryl)-3,4-dihydro-6-oxo-4-benzyl-oxyiminoiso-ML-236A carboxylate], with 0.0331 µM.
On the same count and under the same terms, then `CCC(C)C(=O)OC1CCC(=NOCc2ccc(F)cc2)C2=CC(=O)C(C)C(CCC(O)CC(O)CC(=O)O)C21` (stereo not shown) [Example 3b, Sodium 1-(2-methylbutyryl)-3,4-dihydro-6-oxo-4-(4-fluorobenzyl)oxyiminoiso-ML-236A Carboxylate], with 0.0265 µM; and `CCC(C)C(=O)OC1CCC(=NOCc2ccc([N+](=O)[O-])cc2)C2=CC(=O)C(C)C(CCC(O)CC(O)CC(=O)O)C21` (stereo not shown) [Example 4b, Sodium 1-(2-methylbutyryl)-3,4-dihydro-6-oxo-4-(4-nitrobenzyl)oxyiminoiso-ML-236ACarboxylate], with 0.021 µM; and `CCC(C)C(=O)OC1CCC(=NOCc2ccccc2CO)C2=CC(=O)C(C)C(CCC(O)CC(O)CC(=O)O)C21` (stereo not shown) [Example 6b, Sodium 1-(2-methylbutyryl)-3,4-dihydro-6-oxo-4-(2-hydroxymethylbenzyl)oxyiminoiso-ML-236A Carboxylate], with 0.0184 µM.
Still for that read-out and setting: the value for `CCC(C)C(=O)OC1CCC(=NOCc2cccnc2)C2=CC(=O)C(C)C(CCC(O)CC(O)CC(=O)O)C21` (stereo not shown) [Example 10b, Sodium 1-(2-methylbutyryl)-3,4-dihydro-6-oxo-4-(3-pyridylmethyl)oxyiminoiso-ML-236A Carboxylate] was 0.0314 µM.
As for `CCC(C)C(=O)OC1CCC(=NOCc2ccco2)C2=CC(=O)C(C)C(CCC(O)CC(O)CC(=O)O)C21` (stereo not shown) [Example 11b, Sodium 1-(2-methylbutyryl)-3,4-dihydro-6-oxo-4-furfuryl-oxyiminoiso-ML-236ACarboxylate], the IC50 was found to be 0.036 µM.
Same read-out and setting: then `CCC(C)C(=O)OC1CCC(=NOCC=C(C)C)C2=CC(=O)C(C)C(CCC(O)CC(O)CC(=O)O)C21` (stereo not shown) [Example 17b, Sodium 1-(2-methylbutyryl)-3,4-dihydro-6-oxo-4-(3-methyl-2-butenyl)oxyiminoiso-ML-236A Carboxylate], with 0.0213 µM.

In another experiment the test system is serum cholesterol.
Test: not given
Conditions: animals; J. Antibiotics 29, 1346 (1976); cited from earlier work.
As to `CC1C=CC2=CCCC(O)C2C1CCC1CC(O)CC(=O)O1` (stereo not shown) [ML-236A], the “reduction of serum cholesterol levels” value is given as “significantly reduce”.
`CCC(C)C(=O)OC1CCC=C2C=CC(C)C(CCC3CC(O)CC(=O)O3)C21` (stereo not shown) [ML-236B]: the “reduction of serum cholesterol levels” value was “significantly reduce”.

In a further experiment the test system is 3-hydroxy-3-methylglutaryl-coenzyme A reductase.
Test: not given
The settings on record: enzymes or cultured cells from experimental animals; competing with HMG-CoA reductase; cited from earlier work.
With `CC1C=CC2=CCCC(O)C2C1CCC1CC(O)CC(=O)O1` (stereo not shown) [ML-236A], the “inhibition of the biosynthesis of cholesterol” value is given as “inhibit the biosynthesis of cholesterol”.
`CCC(C)C(=O)OC1CCC=C2C=CC(C)C(CCC3CC(O)CC(=O)O3)C21` (stereo not shown) [ML-236B]: the “inhibition of the biosynthesis of cholesterol” value is on record as “inhibit the biosynthesis of cholesterol”.

These data come from patent publication US5658942A, “Octahydronaphthalene oxime compounds for cholesterol synthesis inhibition” (Sankyo Company, Limited, priority 1987, dated 1997).
